The values below come from patent US20230124361A1, “SMALL MOLECULE STING ANTAGONISTS” (CURADEV PHARMA PVT. LTD., priority 2020, published 2023).

In this experiment the target is T1, STING (Homo sapiens, UniProt Q86WV6, G230A/H232R/R293Q/R71H).
T1 construct: host or cells: THP1-Dual cells (human THP-1 monocyte line with Lucia/SEAP reporters)
T1 sequence (Q86WV6 whole entry R71H/G230A/H232R/R293Q): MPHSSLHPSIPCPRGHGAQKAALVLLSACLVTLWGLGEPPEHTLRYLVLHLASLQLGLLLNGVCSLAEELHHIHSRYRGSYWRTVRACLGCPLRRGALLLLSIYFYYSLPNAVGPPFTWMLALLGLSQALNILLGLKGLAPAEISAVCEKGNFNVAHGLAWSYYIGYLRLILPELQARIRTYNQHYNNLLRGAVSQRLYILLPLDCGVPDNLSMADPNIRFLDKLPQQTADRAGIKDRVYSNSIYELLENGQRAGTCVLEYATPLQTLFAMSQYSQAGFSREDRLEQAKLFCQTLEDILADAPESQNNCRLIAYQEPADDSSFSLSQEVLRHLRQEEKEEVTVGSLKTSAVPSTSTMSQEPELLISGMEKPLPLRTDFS
The experiment is described as follows: Reporter gene expression assay in THP1-Dual cells (IRF pathway Lucia luciferase, 2',3'-cGAMP stimulation). The experiment is classed as cell-based. The following applies: 10 min preincubation, 5 μM 2',3'-cGAMP, 20 hr, IRF reporter QUANTI-Luc, read-out: THP-1 (HAQ) Activity. Put shortly:
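THP1-Dual cells preincubated 10 min with compound, then stimulated with 5 μM 2′,3′-cGAMP for 20 hr. Secreted Lucia luciferase (IRF reporter) measured in supernatant by luminescence; IC50 reported as ranges (A ≤1 μM, B >1–≤10 μM, C >10 μM).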
On the technique in general: A reporter such as luciferase makes a cellular process visible.
In the case of `O=C(Nc1ccc2c(c1)OCC(=O)N2Cc1ccc(OC(F)(F)F)c(Cl)c1)Nc1ccc2cc[nH]c2c1` [Example 107, 1-(4-(3-chloro-4-(trifluoromethoxy)benzyl)-3-oxo-3,4-dihydro-2H-benzo[b][1,4]oxazin-7-yl)-3-(1H-indol-6-yl)urea], the IC50 is at most 1000 nM.

Consider `Cc1cc(CN2C(=O)COc3cc(NC(=O)Nc4ccc5cc[nH]c5c4)ccc32)ccc1F` [Example 108, 1-(4-(4-fluoro-3-methylbenzyl)-3-oxo-3,4-dihydro-2H-benzo[b][1,4]oxazin-7-yl)-3-(1H-indol-6-yl)urea], for which the IC50 was at most 1000 nM.

Consider `O=C(Nc1ccc2c(c1)OCC(=O)N2Cc1ccc(OC(F)F)cc1)Nc1ccc2cc[nH]c2c1` [Example 109, 1-(4-(4-(difluoromethoxy)benzyl)-3-oxo-3,4-dihydro-2H-benzo[b][1,4]oxazin-7-yl)-3-(1H-indol-6-yl)urea], for which the IC50 is at most 1000 nM.

For the molecule `O=C(Nc1ccc2c(c1)OCC(=O)N2CCc1ccccc1Cl)Nc1ccc2cc[nH]c2c1` [Example 110, 1-(4-(2-chlorophenethyl)-3-oxo-3,4-dihydro-2H-benzo[b][1,4]oxazin-7-yl)-3-(1H-indol-6-yl)urea], the IC50 is 1000 to 10000 nM.

Consider `O=C(Nc1ccc2c(c1)OCC(=O)N2Cc1ccc(F)c(Cl)c1)Nc1ccc2cc[nH]c2c1` [Example 111, 1-(4-(3-chloro-4-fluorobenzyl)-3-oxo-3,4-dihydro-2H-benzo[b][1,4]oxazin-7-yl)-3-(1H-indol-6-yl)urea], for which the IC50 lay in the range of 1000 to 10000 nM.

On to `O=C(Nc1ccc2c(c1)OCC(=O)N2Cc1cc(F)cc(C(F)(F)F)c1)Nc1ccc2cc[nH]c2c1` [Example 112, 1-(4-(3-fluoro-5-(trifluoromethyl)benzyl)-3-oxo-3,4-dihydro-2H-benzo[b][1,4]oxazin-7-yl)-3-(1H-indol-6-yl)urea], for which the IC50 is at most 1000 nM.

Turning to `O=C(Nc1ccc2c(c1)OCC(=O)N2Cc1ccccc1C(F)(F)F)Nc1ccc2cc[nH]c2c1` [Example 113, 1-(1H-indol-6-yl)-3-(3-oxo-4-(2-(trifluoromethyl)benzyl)-3,4-dihydro-2H-benzo[b][1,4]oxazin-7-yl)urea], the IC50 fell in the range of 1000 to 10000 nM.

With `O=C(Nc1ccc2c(c1)OCC(=O)N2Cc1ccc2c(c1)OCO2)Nc1ccc2cc[nH]c2c1` [Example 114, 1-(4-(benzo[d][1,3]dioxol-5-ylmethyl)-3-oxo-3,4-dihydro-2H-benzo[b][1,4]oxazin-7-yl)-3-(1H-indol-6-yl)urea], the IC50 is at most 1000 nM.

In the case of `COc1ccc(OC)c(CN2C(=O)COc3cc(NC(=O)Nc4ccc5cc[nH]c5c4)ccc32)c1` [Example 115, 1-(4-(2,5-dimethoxybenzyl)-3-oxo-3,4-dihydro-2H-benzo[b][1,4]oxazin-7-yl)-3-(1H-indol-6-yl)urea], the IC50 fell in the range of 1000 to 10000 nM.

For the molecule `N#Cc1cccc(CN2C(=O)COc3cc(NC(=O)Nc4ccc5cc[nH]c5c4)ccc32)c1` [Example 116, l-(4-(3-cyanobenzyl)-3-oxo-3,4-dihydro-2H-benzo[b][1, 4]oxazin-7-yl)-3-(1H-indol-6-yl)urea], the IC50 was in the range of 1000 to 10000 nM.

With `O=C(Nc1ccc2c(c1)OCC(=O)N2Cc1nc2ccccc2s1)Nc1ccc2cc[nH]c2c1` [Example 117, 1-(4-(benzo[d]thiazol-2-ylmethyl)-3-oxo-3,4-dihydro-2H-benzo[b][1,4]oxazin-7-yl)-3-(1H-indol-6-yl)urea], the IC50 was at most 1000 nM.

As for `O=C(Nc1ccc2c(c1)OCC(=O)N2Cc1ccc(C(=O)O)cn1)Nc1ccc2cc[nH]c2c1` [Example 118, 6-((7-(3-(1H-indol-6-yl)ureido)-3-oxo-2,3-dihydro-4H-benzo[b][1,4]oxazin-4-yl)methyl)nicotinic acid], the IC50 was above 10000 nM.

For the molecule `O=C(Nc1ccc2c(c1)OCC(=O)N2Cc1ccc2nsnc2c1)Nc1ccc2cc[nH]c2c1` [Example 119, 1-(4-(benzo[c][1,2,5]thiadiazol-5-ylmethyl)-3-oxo-3,4-dihydro-2H-benzo[b][1,4]oxazin-7-yl)-3-(1H-indol-6-yl)urea], the IC50 fell in the range of 1000 to 10000 nM.
